PubChem BioAssay AID2060610 (Molecular Pharmacology Branch, DTP, NCI, 2025)
Several values for one entry are separate records, joined by “and”; a condition that tells them apart may be missing. Equal entries are not always repeated.

System: 616215-338-R-J1-PDC complex spheroids, viability % test/control
Assay: Anticancer human tumor 616215-338-R-J1-PDC patient-derived colon adenocarcinoma cell line growth inhibition [CLK]
Conditions: for viability, T/C: stronger effect = lower value
Outline: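 Multi-cell-type spheroids combined patient-derived tumor cells with HUVEC endothelial cells and human mesenchymal stem cells. Paired agents were dosed in half-log steps down from about clinical Cmax, or from 10 microM where Cmax was unknown.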

[1] = curve of first compound, second compound 0.0316 µM
[2] = curve of first compound, second compound 0.1 µM
[3] = curve of first compound, second compound 0.316 µM
[4] = curve of first compound, second compound 1 µM
[5] = curve of first compound, second compound 3.16 µM
[6] = curve of first compound, second compound 10 µM
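Also: spheroids exposed to agents for 7 days.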
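For viability, T/C in this document: 100% = DMSO vehicle wells.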

`NC(=O)C(=Cn1cnc(-c2cc(C(F)(F)F)cc(C(F)(F)F)c2)n1)c1cncnc1` + CN1CCN(c2cc(C(=O)Nc3cc4cc(-c5cnn(C)c5)ccc4cn3)ccn2)CC1 was tested, and the IC50 [1] was 220 nM, the IC50 [2] was 103 nM and the IC50 [3] was less than 9.49 nM. The IC50 [4] was less than 9.49 nM, the IC50 [5] was less than 9.49 nM and the IC50 [6] was less than 9.49 nM. The viability, T/C (second compound 0.0316 µM, first compound 0.00949 µM) was 113%, the viability, T/C (second compound 0.0316 µM, first compound 0.03 µM) was 114% and the viability, T/C (second compound 0.0316 µM, first compound 0.0949 µM) was 74.5%. The viability, T/C (second compound 0.0316 µM, first compound 0.3 µM) was 41.2%, the viability, T/C (second compound 0.0316 µM, first compound 0.949 µM) was 19.1% and the viability, T/C (second compound 0.0316 µM, first compound 3 µM) was 9.26%. It also gave a viability, T/C (second compound 0.1 µM, first compound 0.00949 µM) of 104%, a viability, T/C (second compound 0.1 µM, first compound 0.03 µM) of 80.3% and a viability, T/C (second compound 0.1 µM, first compound 0.0949 µM) of 53.4%. The viability, T/C (second compound 0.1 µM, first compound 0.3 µM) was 24.4%, the viability, T/C (second compound 0.1 µM, first compound 0.949 µM) was 9.65% and the viability, T/C (second compound 0.1 µM, first compound 3 µM) was 2.06%. The viability, T/C (second compound 0.316 µM, first compound 0.00949 µM) was 13.1%, the viability, T/C (second compound 0.316 µM, first compound 0.03 µM) was 10.7% and the viability, T/C (second compound 0.316 µM, first compound 0.0949 µM) was 1.47%. It also gave a viability, T/C (second compound 0.316 µM, first compound 0.3 µM) of 0.24%, a viability, T/C (second compound 0.316 µM, first compound 0.949 µM) of 0.92% and a viability, T/C (second compound 0.316 µM, first compound 3 µM) of 2.69%. For the same compound, the viability, T/C (second compound 1 µM, first compound 0.00949 µM) was 0.11%, the viability, T/C (second compound 1 µM, first compound 0.03 µM) was 0.13% and the viability, T/C (second compound 1 µM, first compound 0.0949 µM) was 1.63%. For the same compound, the viability, T/C (second compound 1 µM, first compound 0.3 µM) was 0.1%, the viability, T/C (second compound 1 µM, first compound 0.949 µM) was 0.37% and the viability, T/C (second compound 1 µM, first compound 3 µM) was 0.09%. It also gave a viability, T/C (second compound 3.16 µM, first compound 0.00949 µM) of 0.08%, a viability, T/C (second compound 3.16 µM, first compound 0.03 µM) of 0.11% and a viability, T/C (second compound 3.16 µM, first compound 0.0949 µM) of 0.16%. For the same compound, the viability, T/C (second compound 3.16 µM, first compound 0.3 µM) was 0.13%, the viability, T/C (second compound 3.16 µM, first compound 0.949 µM) was 0.13% and the viability, T/C (second compound 3.16 µM, first compound 3 µM) was 2.73%. It also gave a viability, T/C (second compound 10 µM, first compound 0.00949 µM) of 0.1%, a viability, T/C (second compound 10 µM, first compound 0.03 µM) of 0.13% and a viability, T/C (second compound 10 µM, first compound 0.0949 µM) of 0.41%. For the same compound, the viability, T/C (second compound 10 µM, first compound 0.3 µM) was 0.23%, the viability, T/C (second compound 10 µM, first compound 0.949 µM) was 0.23% and the viability, T/C (second compound 10 µM, first compound 3 µM) was 1.29%.

With `COC1C=CCC(C)C(C)S(=O)(=O)NC(=O)c2ccc3c(c2)N(CC2CCC21)CC1(CCCc2cc(Cl)ccc21)CO3` (stereo not given) the viability, T/C (compound 0.0316 µM) was 42.2% and 92.1%, the viability, T/C (compound 0.1 µM) was 33.1% and 98.1% and the viability, T/C (compound 0.316 µM) was 95.7% and 96.9%. The viability, T/C (compound 1 µM) was 104% and 101%, the viability, T/C (compound 3.16 µM) was 38.7% and 103% and the IC50 (curve of compound) was 2050 nM and > 10000 nM.

`CC(CO)NC(=O)c1cc(-c2ccc(Cl)cc2)nn(-c2cnn(C)c2)c1=O` (stereo not given) + CNC(=O)c1ccc(Nc2nc(OC3CCCC3)c3c(-c4ccc5nc(C)oc5c4)c[nH]c3n2)c(OC)c1 was tested, and the IC50 [1] was greater than 10000 nM, the IC50 [2] was 487 nM and the IC50 [3] was less than 31.6 nM. The IC50 [4] was less than 31.6 nM, the IC50 [5] was less than 31.6 nM and the IC50 [6] was less than 31.6 nM. The viability, T/C (second compound 0.0316 µM, first compound 0.0316 µM) was 85.1%, the viability, T/C (second compound 0.0316 µM, first compound 0.1 µM) was 89% and the viability, T/C (second compound 0.0316 µM, first compound 0.316 µM) was 89.2%. It also gave a viability, T/C (second compound 0.0316 µM, first compound 1 µM) of 92.8%, a viability, T/C (second compound 0.0316 µM, first compound 3.16 µM) of 91.1% and a viability, T/C (second compound 0.0316 µM, first compound 10 µM) of 97.5%. For the same compound, the viability, T/C (second compound 0.1 µM, first compound 0.0316 µM) was 58.9%, the viability, T/C (second compound 0.1 µM, first compound 0.1 µM) was 57.9% and the viability, T/C (second compound 0.1 µM, first compound 0.316 µM) was 48.7%. For the same compound, the viability, T/C (second compound 0.1 µM, first compound 1 µM) was 45.9%, the viability, T/C (second compound 0.1 µM, first compound 3.16 µM) was 50.6% and the viability, T/C (second compound 0.1 µM, first compound 10 µM) was 43.4%. The viability, T/C (second compound 0.316 µM, first compound 0.0316 µM) was 36.4%, the viability, T/C (second compound 0.316 µM, first compound 0.1 µM) was 45.8% and the viability, T/C (second compound 0.316 µM, first compound 0.316 µM) was 40.2%. It also gave a viability, T/C (second compound 0.316 µM, first compound 1 µM) of 38.6%, a viability, T/C (second compound 0.316 µM, first compound 3.16 µM) of 48% and a viability, T/C (second compound 0.316 µM, first compound 10 µM) of 40.2%. For the same compound, the viability, T/C (second compound 1 µM, first compound 0.0316 µM) was 43.5%, the viability, T/C (second compound 1 µM, first compound 0.1 µM) was 46% and the viability, T/C (second compound 1 µM, first compound 0.316 µM) was 46.3%. For the same compound, the viability, T/C (second compound 1 µM, first compound 1 µM) was 41.8%, the viability, T/C (second compound 1 µM, first compound 3.16 µM) was 44.2% and the viability, T/C (second compound 1 µM, first compound 10 µM) was 35.3%. For the same compound, the viability, T/C (second compound 3.16 µM, first compound 0.0316 µM) was 45%, the viability, T/C (second compound 3.16 µM, first compound 0.1 µM) was 45.4% and the viability, T/C (second compound 3.16 µM, first compound 0.316 µM) was 36.2%. The viability, T/C (second compound 3.16 µM, first compound 1 µM) was 38.4%, the viability, T/C (second compound 3.16 µM, first compound 3.16 µM) was 31.7% and the viability, T/C (second compound 3.16 µM, first compound 10 µM) was 30.3%. It also gave a viability, T/C (second compound 10 µM, first compound 0.0316 µM) of 43.4%, a viability, T/C (second compound 10 µM, first compound 0.1 µM) of 43.4% and a viability, T/C (second compound 10 µM, first compound 0.316 µM) of 34.3%. The viability, T/C (second compound 10 µM, first compound 1 µM) was 30.3%, the viability, T/C (second compound 10 µM, first compound 3.16 µM) was 34.3% and the viability, T/C (second compound 10 µM, first compound 10 µM) was 39.5%.
